Data reported in patent US7939556B2, “Imidazole derivatives and their use for modulating the GABAA receptor complex” (Neurosearch A/S, priority 2005, dated 2011).

Molecular target: benzodiazepine modulatory unit of the GABAA receptor complex
Assay: In vitro inhibition of 3H-flunitrazepam (3H-FNM) binding
Details: inhibition of specific binding of 3H-FNM (1 nM), rat cerebral cortex membranes, 40 min at 2° C.
Experimental: In Vitro Inhibition of ^3H-Flunitrazepam (^3H—FNM) Binding
The GABA recognition site and the benzodiazepine modulatory unit can selectively be labelled with ^3H-flunitrazepam.
Preparations are performed at 0-4° C. unless otherwise indicated. Cerebral cortex from male Wistar rats (150-200 g) is homogenised for 5-10 sec in 20 ml Tris-HCl (30 mM, pH 7.4) using an Ultra-Turrax homogeniser. The suspension is centrifuged at 27,000×g for 15 min and the pellet is washed three times with buffer (centrifuged at 27,000×g for 10 min). The washed pellet is homogenized in 20 ml of buffer and incubated on a water bath (37° C.) for 30 min to remove endogenous GABA and then centrifuged for 10 min at 27,000×g. The pellet is then homogenized in buffer and centrifuged for 10 min at 27,000×g. The final pellet is resuspended in 30 ml buffer and the preparation is frozen and stored at −20° C.
The membrane preparation is thawed and centrifuged at 2° C. for 10 min at 27,000×g. The pellet is washed twice with 20 ml 50 mM Tris-citrate, pH 7.1 using an Ultra-Turrax homogeniser and centrifuged for 10 min at 27,000×g. The final pellet is resuspended in 50 mM Tris-citrate, pH 7.1 (500 ml buffer per g of original tissue), and then used for binding assays. Aliquots of 0.5 ml tissue are added to 25 μl of test solution and 25 μl of ^3H—FNM (1 nM, final concentration), mixed and incubated for 40 min at 2° C. Non-specific binding is determined using Clonazepam (1 μM, final concentration). After incubation the samples are added 5 ml of ice-cold buffer and poured directly onto Whatman GF/C glass fibre filters under suction and immediately washed with 5 ml ice-cold buffer. The amount of radioactivity on the filters is determined by conventional liquid scintillation counting. Specific binding is total binding minus non-specific binding.
25-75% inhibition of specific binding must be obtained, before calculation of an IC50.
The test value will be given as IC50 (the concentration (μM) of the test substance which inhibits the specific binding of ^3H—FNM by 50%).
Co is specific binding in control assays, and […]

| IC50 | Structure (SMILES) |
| --- | --- |
| 0.024 µM | CCOC(=O)c1cn(-c2cccc(Br)c2)cn1 [Compound 16, 1-(3-Bromo-phenyl)-1H-imidazole-4-carboxylic acid ethyl ester] |
| 0.18 µM | COC(=O)c1cn(-c2cccc([N+](=O)[O-])c2)cn1 [Compound 20, 1-(3-Nitro-phenyl)-1H-imidazole-4-carboxylic acid methyl ester] |
| 0.024 µM | CCOC(=O)c1cn(-c2cccc(COCc3ccccn3)c2)cn1 [Compound 11a, 1-[3-(Pyridin-2-ylmethoxymethyl)-phenyl]-1H-imidazole-4-carboxylic acid ethyl ester] |
